According to patent US20050032124A1, “Identification of genotype-selective agents for treating Huntington's disease” (priority 2003, published 2005):
In brackets after ≈: the same amount, converted by molar mass. Like-named read-outs stand apart in the source and are kept apart here.

Experiments:
Format in all cases: cell-based, human
[1] = test system: BJ-TERT/LT/ST/RAS^V12 tumorigenic cells; assay: Calcein AM viability assay, dilution-series retest; settings: for IC50: Homo sapiens, 48 h, read-out: IC50, BJ-TERT/LT/ST/Ras^V12; for Tumor Selectivity: IC50 in primary BJ cells divided by IC50 in BJ-TERT/LT/ST/RAS^V12 tumorigenic cells
Method: Described here is work carried out to identify compounds with increased potency or activity in the presence of hTERT, LT, ST, E6, E7 or RAS^V12. […] The primary screen tested (in quadruplicate) the effect of treating tumorigenic BJ-TERT/LT/ST/RAS^V12 engineered tumorigenic cells with each compound for 48 hours at a concentration of 4 μg/mL, corresponding to 10 μM for a compound with a molecular weight of 400, which is the approximate median molecular weight of the libraries. Cell viability was measured using the dye calcein acetoxymethyl ester (calcein AM) (Wang et al., 1993, Hum. Immunol. 3 7, 264-270), which is a non-fluorescent compound that freely diffuses into cells. In live cells, calcein AM is cleaved by intracellular esterases, forming the anionic fluorescent derivative calcein, which cannot diffuse out of live cells. […] The IC50 value (concentration required to inhibit 50% of the calcein AM signal) was calculated for each compound in each cell line (Table 1).
Calcein acetoxylmethyl ester (AM) is a cell membrane-permeable, non-fluorescent compound that is cleaved by intracellular esterases to form the anionic, cell-impermeable, fluorescent compound calcein. Viable cells are stained by calcein because of the presence of intracellular esterases and because the intact plasma membrane prevents fluorescent calcein from leaking out of cells (Wang et al., 1993, supra). Cells were seeded in 384-well plates using a Zymark Sciclone ALH, treated with each compound in triplicate at 4 μg/mL in the primary screen for two days, washed with phosphate-buffered saline on a Packard Minitrak with a 384-well washer and incubated for four hours with 0.7 μg/mL calcein (Molecular Probes). Total fluorescence intensity in each well was recorded on a Packard Fusion platereader, and converted to a percent inhibition of signal by subtracting the instrument background and dividing by the average signal obtained when cells were not treated with any compound.
Replica daughter plates were prepared with a Zymark Sciclone ALH and integrated Twister II by diluting stock plates 50 fold in medium lacking serum and pen/strep to obtain a compound concentration in daughter plates of 80 μg/ml with 2% DMSO. Assay plates were prepared by seeding cells in black, clear bottom 384-well plates in columns 1-23 (6000 cells/well in 57 μl) using a syringe bulk dispenser. Columns 3-22 were treated with compounds from a daughter library plate by transferring 3 μl from the daughter library plate using 384-position fixed cannula array. The final compound concentrations in assay plates were thus 4 μg/ml. The assay plates were incubated for 48 hours at 37° C. in humidified incubator containing 5% CO2. Plate processing for the calcein AM viability assay was performed using an integrated Minitrak/Sidetrak robotic system from Packard Bioscience (Perkin Elmer). Assay plates were washed with phosphate buffered saline, and 20 μl of calcein AM (0.7 μg/ml) per well was added. Plates were incubated at room temperature for 4 hours. Fluorescence intensity was determined using a Fusion platereader with filters centered on an excitation of 485 nm and an emission of 535 nm.
Compounds to be retested were purchased from manufacturers. Stocks were prepared in DMSO at a concentration of 1 mg/ml in 384-well polypropylene plates with a 16-point, two-fold dilution dose curve of each compound in a column, in duplicates. Column 1-2 and 23-24 were left empty for controls. Daughter retest plates were prepared from stock retest plate by diluting 66.6 fold in DMEM in 384-well deep-deep well plates (4.5 μl transfer into 300 μl). Cells were seeded at a density of 6000 per well in 40 μl, and 20 μl was added from a daughter retest plate. The plates were incubated for two days at 37° C. with 5% CO2.

[2] = test system: BJ-TERT/LT/ST/RAS^V12 cells; assay: Annexin V-FITC apoptosis assay; settings: untreated 6%
Method: BJ-TERT/LT/ST/RAS^V12 cells were seeded at 1×10^6 cells per dish in 100 mm dishes and allowed to grow overnight. Cells were treated with erastin (5 or 10 μg/ml) for 6, 8 or 11 h. A camptothecin-treated (0.4 μg/ml) control was maintained, treated at the time of seeding for 20 hours. After the treatment, cells were harvested with trypsin/EDTA and washed once with fresh medium containing serum and then twice with phosphate buffered saline. Cells were resuspended in 1× binding buffer (BD Pharmingen) at a concentration of 1×10^6 cells/mi. 100 μl (1×10^5 cells) was incubated with 5 μl of Annexin V- FITC (BD Pharmingen) and propidium iodiode (BD Pharmingen) for 15 minutes in the dark at room temperature. Then 400 μl of the 1× binding buffer was added and the cells analyzed by flow cytometry (Becton-Dickinson). Data were acquired and analyzed using Cellquest software.

[3] = test system: BJ-TERT/LT/ST/RAS^V12 cells; assay: DNA fragmentation (DNA ladder)
reactive oxygen species = assay: ROS analysis, flow cytometry using H2DCF-DA; settings: engineered cells
Excerpt: 2′7′ dichlorodihydrofluorescein diacetate (H2DCF-DA) is a non-fluorescent cell permeable compound. The endogenous esterase enzyme inside the cell cleaves the diacetate part, and it can no longer pass out of the cell. Thus it accumulates in the cell. Then H2DCF reacts with ROS to form fluorescent dichlorofluorescene (DCF) which can be measured by flow cytometry in FL1 channel. • 1. Seed cells at 3×10^5 cells per dish in 60 mm dishes and allow to grow overnight. • 2. Treat with the test compound for different period of time (1-10 hr). • 3. Maintain one dish for untreated cells, compound treated cell and positive control dish (hydrogen peroxide treated) for each time point. • 4. Incubate the cells with 10 μM of H2DCF-DA for 10 minutes at 37° C. • 5. For positive control cells, after 5 minutes of H2DCF-DA loading, add 500 μM of hydrogen peroxide and incubate for 5 minutes further. • 6. Harvest the cell by trypsinization. • 7. Wash with cold PBS-twice. • 8. Resuspend the pellet in 100 μl of PBS and transfer into 5 ml FACS tube. • 9. Add 5 μl of propidium iodide (50 μg/ml) and incubate for 10 minutes on ice in dark. • 10. Add 400 μl of PBS and analyze by flow cytometry (Becton-Dickinson). • 11. Acquire the data and analyze using CellQuest software program. • 12. Take only propidium iodiode negative cells (viable cells) for the analysis for DCF staining using the FLI channel, PI in FL3 channel, plot a quadrant chart.

[4] = BJ-TERT/LT/ST/Ras^V12 cells, 16-point two-fold dilution, two days

Compound	IC50 [1, 4]	Tumor Selectivity [1]	percentage of cells in the M1 region (Annexin V staining) ([2]; camptothecin-treated (1 μM))	DNA fragmentation (formation of a DNA ladder) [3]	formation of reactive oxygen species (ROS) (reactive oxygen species)	IC50 [1]	percentage of cells in the M1 region (Annexin V staining) ([2]; erastin-treated (9 μM))
COc1ccc(C[C@H]2C(=O)N[C@@H](C)C(=O)N(C)[C@@H]3C(=O)N(C)[C@@H](Cc4ccc(O)c(c4)Oc4ccc(cc4)[C@@H]3O)C(=O)N[C@H](C)C(=O)N[C@@H](C)C(=O)N2C)cc1 [Bouvardin]	0.078 µg/mL (≈ 0.101 µM)	4	–	–	–	–	–
CC[C@@]1(O)C(=O)OCc2c1cc1n(c2=O)Cc2cc3ccccc3nc2-1 [Camptothecin]	0.0195 µg/mL (≈ 0.056 µM)	>512	38%	induces DNA fragmentation	–	–	–
COc1cccc2c1C(=O)c1c(O)c3c(c(O)c1C2=O)C[C@@](O)(C(C)=O)C[C@@H]3O[C@H]1C[C@H](N)[C@H](O)[C@H](C)O1 [Daunorubicin]	0.312 µg/mL (≈ 0.591 µM)	16	–	–	did not observe the formation of ROS	–	–
COc1cccc2c1C(=O)c1c(O)c3c(c(O)c1C2=O)C[C@@](O)(C(=O)CO)C[C@@H]3O[C@H]1C[C@H](N)[C@H](O)[C@H](C)O1 [Doxorubicin]	1.25 µg/mL (≈ 2.3 µM)	>8	–	–	did not observe the formation of ROS	–	–
CS[C@H]1SC[C@H]2C(=O)N(C)[C@@H](C(C)C)C(=O)OC[C@@H](NC(=O)c3cnc4ccccc4n3)C(=O)N[C@@H](C)C(=O)N(C)[C@@H]1C(=O)N(C)[C@@H](C(C)C)C(=O)OC[C@@H](NC(=O)c1cnc3ccccc3n1)C(=O)N[C@@H](C)C(=O)N2C [Echinomycin]	–	>8333	–	–	–	0.0012 µg/mL (≈ 0.00109 µM)	–
CCOc1ccccc1-n1c(C(C)N2CCN(C(=O)COc3ccc(Cl)cc3)CC2)nc2ccccc2c1=O (stereo not shown) [Erastin]	1.25 µg/mL (≈ 2.28 µM)	>8	–	–	–	–	6%
O=C1c2c(O)ccc(O)c2C(=O)c2c(NCCNCCO)ccc(NCCNCCO)c21 [Mitoxantrone]	0.312 µg/mL (≈ 0.702 µM)	18	–	–	did not observe the formation of ROS	–	–
NC(=O)c1cn([C@@H]2O[C@H](CO)[C@@H](O)[C@H]2O)c2ncnc(N)c12 [Sangivamycin]	0.078 µg/mL (≈ 0.252 µM)	4	–	–	–	–	–
